Measured values: US9351986B2, “Calicheamicin derivative-carrier conjugates” (priority 2002, dated 2016)
Read-outs that look alike come from different tables or passages of the source.

Experiments:
[1] = tested on: Raji; test: In vitro growth inhibition of Raji B-cell lymphoma line; assay type: cell-based; settings: for IC50: read-out: IC50 of calicheamicin
From the text: (§1) The effect of CMC-544 made by using CMA-676 and CMC-544 processes on the in vitro growth of CD22^+ B-Cell lymphoma cell lines, RL, Daudi, Raji and Ramos, were compared. An isotype-matched calicheamicin conjugate targeted at human CD33 (CMA-676) was used to reflect antigen-non-specific effects of the conjugate. […] CD22-mediated delivery of calicheamicin to the CD22^+ cells was at least 10 times more efficient in killing the target cells than the unconjugated drug itself. […] It is apparent from Table 4 that conjugate made by the CMC-544 conjugation process can generate equivalent cytotoxic effect at lower antibody concentrations than conjugate made by the CMA-676 conjugation process.

[2] = tested on: RL; test: In vitro growth inhibition of RL B-cell lymphoma line; assay type: cell-based; settings: for IC50: read-out: IC50 of calicheamicin
From the text: as §1

[3] = tested on: RL NHL xenografts; test: RL NHL xenografts staged to 300-400 mg in nude mice; assay type: in vivo; settings: 160 μg/kg intraperitoneally
Description: Similar studies were carried out using the RL lymphoma model. […] CMC-544 in a dose-dependent manner caused tumors to regress over a 3-week time frame. The minimally effective dose of CMC-544 in the RL lymphoma model was established from statistical analyses of these studies to be 20 μg/kg based on calicheamicin content. There were no deaths in any of these three studies.
The observed anti-tumor efficacy was dose-dependent as expected and there was no difference in the efficacies of either of the two CMC-544 preparations. […] However, it should be emphasized that for each dose of conjugated calicheamicin, the quantity of antibody protein administered in the form of a conjugate was four times higher for CMC-544 made by the CMA-676 process versus that made by the CMC-544 process. Since the calicheamicin content of the targeted conjugate is primarily responsible for causing the anti-tumor effect, it is possible to deliver the required quantity of calicheamicin via the conjugate made by the new procedure using much smaller quantities of the targeting antibody. The increased loading of the conjugate made by the CMC-544 process is, in effect, due to the lack of significant amounts of the low conjugated fraction (LCF).

[4] = tested on: Ramos; test: In vitro growth inhibition of Ramos B-cell lymphoma line; assay type: cell-based, human; settings: for IC50: read-out: IC50 of calicheamicin
From the text: as §1

[5] = tested on: Daudi; test: In vitro growth inhibition of Daudi B-cell lymphoma line; assay type: cell-based; settings: Daudi #1; for IC50: read-out: IC50 of calicheamicin
From the text: as §1

[6] = tested on: Ramos cells; test: Disseminated RAMOS B lymphoma in SCID mice, developing model; assay type: in vivo
Description: (§2) Male SCID mice (CB17 SCID), 20-25 g, were injected with […] through the tail vein (0.2 ml). […] For the day 3 treatment schedule, mice were dosed on days 3, 7, and 11. For the day 9 treatment schedule, mice were dosed on days 9, 13 and 17. […] Mice were monitored daily for the presence of hind limb paralysis at which time they were killed. Seven to 10 mice per treatment group were used. The group average survival time (±SD), median, minimum, and maximum survival times were all calculated. The difference in survival distribution between groups was determined by using a nonparametric Log-rank test with significance reported at the 0.05 level. The survival curves were constructed using the Kaplan-Meier method.
(§3) The initial study examined the effect of two different dosing schedules on survival times of the SCID mice with the disseminated lymphoma. The first study looked at initiating drug dosing 3 days after the tumor cells were injected intravenously (developing model), while the second study delayed drug dosing until 9 days post tumor cell injection (established model).

[7] = tested on: large RAMOS lymphoma; test: Large established RAMOS lymphoma xenografts; assay type: in vivo, nude mice; settings: 160 μg/kg ip, days 1, 5 and 9
Description: The ability of CMC-544 made by the new procedure to inhibit growth of large established B-cell lymphoma xenografts using both the RAMOS and RL lymphoma models was also investigated. The tumors were allowed to grow and staged to 1.5 or 2 g of tumor mass after which CMC-544 or an isotype-matched negative control conjugate (CMA-676) were administered intraperitoneally at the dose of 160 μg/kg of conjugated calicheamicin keeping the original schedule of dosing on days 1, 5 and 9.
The same schedule of dosing was shown earlier to cause long lasting regression of small staged tumors (see Table 6).

[8] = tested on: Ramos cells; test: Disseminated RAMOS B lymphoma in SCID mice, established model; assay type: in vivo
Description: as §2
as §3, with “model). […]” for “model).”

[9] = tested on: CD22mFc; test: BIACORE biosensor binding analysis of CMC-544 and G5/44; settings: Table 3
Description: Biosensor analyses were carried out using a BIACORE™ 2000 (BIAcore AB, Uppsala, Sweden). CD22mFc was covalently immobilized on the N-hydroxysuccinimide-activated carboxymethyl dextran-coated biosensor chip (CM5) using a standard amine-coupling chemistry at a protein density of approximately 2000 resonance units. Samples of CMC-544 or G5/44 were diluted in the HBS buffer (10 mM HEPES, pH 7.4, containing 150 mM NaCl, 3 mM EDTA and 0.005% polysorbate 20 (v/v)) and injected in the concentration range of 1 to 100 nM over the CD22mFc-coated biosensor chip surface at a flow rate of 30 μl/min for 3 min to allow binding. After the binding phase, dissociation of the bound antibody was monitored by washing the chip with the HBS buffer over a 15 minute period. The antigenic surface was regenerated by washing the Biosensor chip with 15 μl of the regeneration buffer (10 mM NaOH and 200 mM NaCl) for 30 seconds, followed by a stabilization time of 2 minutes before the next cycle. Kinetic constants were calculated by nonlinear least square regression analysis using a 1:1 Langmuir binding curve fitting model and BIAevaluation program (version 3.0, BIAcore). The antigen binding of CMC-544 was evaluated by surface plasmon resonance analysis using CD22mFc covalently immobilized on a biosensor chip.

[10] = tested on: CD22− CD33+ HL-60 leukemia cells; test: Flow cytometry binding to HL-60 leukemia cells; settings: data not shown
From the text: Purified human polyclonal IgG1 and IgG4 were also used as negative controls.

[11] = tested on: RAMOS B-cell lymphoma; test: RAMOS B-cell lymphoma xenograft growth; assay type: in vivo; settings: 10 mg/kg intraperitoneal, subcutaneous xenografts
From the text: In Vivo Cytotoxicity. CMC-544 made by the CMC-544 process was further evaluated in B-cell lymphoma xenografts. In these studies, two B-cell lymphoma tumors, RAMOS and RL, were used. RL lymphoma is a non-Burkitt's NHL-derived cell line whereas RAMOS was originally derived from a Burkitt's lymphoma.

[12] = tested on: CD22-mFc; test: BIACORE affinity of chimeric 5/44 and its variants; assay type: binding; settings: CDR-H2 mutants of chimeric 5/44
Description: The activities of the chimeric genes were evaluated following transient transfection into CHO cells and determination of affinity constants by BIACORE™ analysis.
The affinities of chimeric 5/44 or its variants, which have had their glycosylation site or their reactive lysine removed, were investigated using BIA technology for binding to CD22-mFc constructs. All binding measurements were performed in the BIACORE™ 2000 instrument (Pharmacia Biosensor AB, Uppsala, Sweden). The assay was performed by capture of CD22mFc via the immobilized anti-mouse Fc. The antibody was in the soluble phase. Samples, standard, and controls (50 μl) were injected over immobilized anti-mouse Fc followed by antibody in the soluble phase. After each cycle, the surface was regenerated with 50 μl of 40 mM HCl at 30 μl/min. The kinetic analysis was performed using the BIAevaluation 3.1 software (Pharmacia).

[13] = biological target: T1, cell surface CD22 (Homo sapiens, UniProt P20273); test: Competition assay against mouse 5/44 antibody for binding to Ramos cells; settings: grafted variants expressed in CHO cells
T1 construct: host or cells: Ramos (Burkitt's lymphoma)
From the text: The vectors encoding grafted variants were co-transfected into CHO cells in a variety of combinations, together with the original chimeric antibody chains. Binding activity was compared in a competition assay, competing the binding of the original mouse 5/44 antibody for binding to Ramos cells (obtained from ATCC, a Burkitt's lymphoma lymphoblast human cell line expressing surface CD22). This assay was considered the best way to compare the grafts in their ability to bind to cell surface CD22.

[14] = Table 8, conjugates 160 μg/kg, rituximab 20 mg/kg ip Q4Dx3 from day 3
[15] = Table 8, conjugates 160 μg/kg, rituximab 20 mg/kg ip Q4Dx3 from day 9

`CCN(C(C)=O)[C@H]1CO[C@@H](O[C@H]2[C@H](O[C@H]3C#C/C=C\C#C[C@]4(O)CC(=O)C(NC(=O)OC)=C3/C4=C\CSSC(C)(C)CC(=O)NN)O[C@H](C)[C@@H](NO[C@H]3C[C@H](O)[C@H](SC(=O)c4c(C)c(I)c(O[C@@H]5O[C@@H](C)[C@H](O)[C@@H](OC)[C@H]5O)c(OC)c4OC)[C@@H](C)O3)[C@@H]2O)C[C@@H]1OC` [N-ACETYL GAMMA CALICHEAMICIN DMH, N-Ac gamma calicheamicin DMH, reference compound] gave an IC50 ([1]; Raji #1) of 0.46 nM, an IC50 ([1]; Raji #2) of 0.49 nM and an IC50 ([2]; RL #1) of 0.226 nM. The IC50 ([2]; RL #2) was 0.27 nM, the “anti-tumor activity of unconjugated drug” value [3] was “inactive” and the IC50 ([4]; Ramos #1) was 0.7 nM. The IC50 ([4]; Ramos #2) was 1 nM and the IC50 [5] was 0.26 nM.

“CMA-676: isotype-matched control conjugate of hP67.6 (IgG4, anti-CD33) with AcBut linked calicheamicin [reference compound]” showed an IC50 of antibody ([1]; Raji #1) of 80.00 mg/L, an IC50 ([1]; Raji #1) of 2.8 nM and an IC50 of antibody ([1]; Raji #2) of 117.14 mg/L. It also gave an IC50 ([1]; Raji #2) of 4.1 nM, an IC50 of antibody ([2]; RL #1) of 17.14 mg/L and an IC50 ([2]; RL #1) of 0.6 nM. The IC50 of antibody ([2]; RL #2) was 11.43 mg/L, the IC50 ([2]; RL #2) was 0.4 nM and the “effect on survival time” value ([6]; 160 μg/kg ip Q4Dx3, p>0.05) was “did not increase survival time significantly”. The “Average Survival Time” value [6, 14] was 32.9 days, the “Maximum Survival Time” value [6, 14] was 36.0 days and the “Median Survival Time” value [6, 14] was 34.0 days. The “Minimum Survival Time” value [6, 14] was 28.0 days, the “effect on tumor growth” value [7] was “no effect on the tumor growth” and the “mice sacrificed before day 15 because of tumor burden” value [7] was “Four out of five”. For the same molecule, the “effect on survival times” value ([8]; 160 μg/kg ip Q4Dx3) was “no significant effect on survival times”, the “Average Survival Time” value [8, 15] was 33.7 days and the “Maximum Survival Time” value [8, 15] was 42.0 days. For the same molecule, the “Median Survival Time” value [8, 15] was 31.0 days, the “Minimum Survival Time” value [8, 15] was 30.0 days and the IC50 of antibody [5] was 53.89 mg/L. The IC50 [5] was 1.89 nM.

For CMC-544 (21 μg/mg) (CMA-676 procedure), the “KA” value [9] was 8.1e+09 M⁻¹, the “Ka” value [9] was 490000 M⁻¹ s⁻¹ and the “Kd” value [9] was 6.1e-05 s⁻¹.

In the case of CMC-544 (87 μg/mg) (CMA-544 procedure), the “KA” value [9] is reported as 6.6e+09 M⁻¹, the “Ka” value [9] is reported as 460000 M⁻¹ s⁻¹ and the “Kd” value [9] is reported as 6.9e-05 s⁻¹.

Work on “CMC-544 PROCESS CMC-544 LOADING 65 μg/mg: CMC-544 made by the CMC-544 conjugation process” yielded an IC50 ([1]; Raji #1) of 0.5 nM, an IC50 ([1]; Raji #2) of 0.56 nM and an IC50 ([2]; RL #1) of 0.006 nM. The IC50 ([2]; RL #2) was 0.012 nM, the IC50 ([4]; Ramos #2) was 0.26 nM and the IC50 [5] was 0.021 nM.

“CMC-676 PROCESS CMC-544 LOADING 35 μg/mg: CMC-544 made by the CMA-676 conjugation process” gave an IC50 ([1]; Raji #2) of 0.52 nM, an IC50 ([2]; RL #1) of 0.03 nM and an IC50 ([2]; RL #2) of 0.04 nM. For the same molecule, the IC50 [5] was 0.08 nM.

“G5/44: CDR-grafted humanized antibody directed against cell surface antigen CD22, IgG4 isotype” was tested, and the IC50 of antibody ([1]; Raji #1) was greater than 100 mg/L, the IC50 of antibody ([1]; Raji #2) was greater than 100 mg/L and the “binding to HL-60 leukemia cells” value [10] was “neither CMC-544 nor G5/44 demonstrated any binding”. It also gave an IC50 of antibody ([2]; RL #1) greater than 100 mg/L, an IC50 of antibody ([2]; RL #2) greater than 100 mg/L and an IC50 of antibody ([4]; Ramos #1) greater than 100 mg/L. The IC50 of antibody ([4]; Ramos #2) was greater than 100 mg/L, the IC50 of antibody [5] was greater than 100 mg/L and the “KA” value [9] was 7.9e+09 M⁻¹. The “Ka” value [9] was 220000 M⁻¹ s⁻¹, the “Kd” value [9] was 2.8e-05 s⁻¹ and the “effect of unconjugated antibody on tumor growth” value [11] was “no effect on tumor growth”.

In the case of “K60R: chimeric 5/44 with CDR-H2 mutation K60R removing the reactive lysine”, the “effect of the mutation on affinity” value [12] is reported as “neutral effect on affinity”.

With “N55Q: chimeric 5/44 with CDR-H2 mutation N55Q removing the glycosylation site” the “effect of the mutation on affinity” value [12] was “no effect on affinity”.

B1: gH6: CDR-grafted 5/44 heavy chain graft gH6 (SEQ ID NO: 26) (antibody, V domains shown)
VH: EVQLVQSGAEVKKPGASVKVSCKASGYRFTNYWIHWVRQAPGQGLEWIGGINPGNNYATYRRKFQGRATLTADTSTSTVYMELSSLRSEDTAVYYCTREGYGNYGAWFAYWGQGTLVTVSS
modifications: gH6
B1 was tested, and the “binding activity in competition with mouse 5/44” value [13] was “did not appear to have affected binding”.

B2: gH7: CDR-grafted 5/44 heavy chain graft gH7 (SEQ ID NO: 27) (antibody, V domains shown)
VH: EVQLVQSGAEVKKPGASVKVSCKASGYRFTNYWIHWVRQAPGQGLEWIGGINPGNNYATYRRKFQGRVTMTADTSTSTVYMELSSLRSEDTAVYYCTREGYGNYGAWFAYWGQGTLVTVSS
modifications: gH7
B2 was tested, and the “binding activity in competition with mouse 5/44” value [13] was “did not appear to have affected binding”.
